The values that follow come from publication PMC7140114 (Cancers, 2020).

In one assay the test system is cells (cellular level). The note with it: cited from earlier work.
In another assay the test system is BT-474 cells. In words: In vitro cytotoxicity (CellTiter-Glo, 7 days), BT-474. Format: cell-based, human. The note with it: BT-474, HER2+++; for pIC50: Homo sapiens, 168 h. The protocol: (§1) Human HER2-positive cell lines (BT-474, HCC1954, and NCI-N87) and HER2-negative cell lines (MCF-7 and MDA-MB-468) were purchased from the ATCC. Tumor cells were cultured in Roswell Park Memorial Institute (RPMI)-1640 medium (Cellgro, Manassas, VA, USA) supplemented with 10% fetal bovine serum (Invitrogen, Carlsbad, CA, USA) and GlutaMAX (Invitrogen, Carlsbad, CA, USA). Cells (3.3 × 10^4 cells/well) were added to each well of 384-well plates and incubated at 37 °C overnight, after which 10 μL of compound aliquots were added to the assay plate. […] Then, the plates were removed from the incubator and equilibrated at room temperature for 10 min. The Cell Titer Glo® (CTG, Promega, Madison, WI, USA) reagents were incubated at 37 °C before the experiment. The buffer was equilibrated to room temperature and used to dissolve the substrate. Then, 40 μL of CTG reagent was added to each well for detection (at 1:1 ratio to the culture medium).

A further assay deals with NCI-N87 cells. As to the kind of experiment: In vitro cytotoxicity (CellTiter-Glo, 7 days), NCI-N87. Format: cell-based, human. The note with it: NCI-N87, HER2+++; for pIC50: Homo sapiens, 168 h. The protocol:
as §1
In general terms: ATP-based viability assays read luminescence as a measure of living cells.

Another assay relates to tubulin. In words: Tubulin polymerization inhibition assay (fluorescence-based kit). Format: biochemical. The note with it: tested at 0.1-30 μM; mean of triplicate. The text has this:
In this study, we used a molecular-level tubulin inhibition assay to rapidly assess the efficacy of ionized conjugates to circumvent the effects of the differences in membrane permeability. […] All of the tested Cys-linker-MMAE conjugates produced concentration-dependent inhibition of tubulin polymerization, providing a basis for developing ADCs with Cys-linker-MMAE as potent payloads.
We used the Tubulin Polymerization Assay Kit (Cat. # BK011P, Cytoskeleton, Inc., Denver, CO, USA) according to the manufacturer’s instructions for this fluorescence-based test. Before this test, the linker-MMAE conjugates were added to an L-cysteine solution (0.3 mmol/L in H2O, 900 μL), and the mixture was incubated for 10 min at room temperature for the conversion to Cys-linker-MMAE conjugates according to previously reported methods.

Another assay relates to HCC1954 cells. As to the kind of experiment: In vitro cytotoxicity (CellTiter-Glo, 7 days), HCC1954. Format: cell-based, human. The note with it: HCC1954, HER2+++; for pIC50: Homo sapiens, 168 h. The protocol:
as §1

Another assay has as its system MDA-MB-468 cells. As to the kind of experiment: In vitro cytotoxicity (CellTiter-Glo, 7 days), MDA-MB-468. Format: cell-based, human. The note with it: MDA-MB-468, HER2−; for pIC50: Homo sapiens, 168 h. The protocol: as §1
The subject of a further assay is MCF-7 cells. In words: In vitro cytotoxicity (CellTiter-Glo, 7 days), MCF-7. Format: cell-based, human. The note with it: MCF-7, HER2−; for pIC50: Homo sapiens, MCF7, 168 h. The protocol:
as §1

In assay [1] the test system is HER2-positive cell lines (BT-474, HCC1954, and NCI-N87) and HER2-negative cell lines (MCF-7, and MDA-MB-468). In words: In vitro cytotoxicity, summary over the cell line panel. Format: cell-based, human. The note with it: from Table 2 IC50 values. The protocol:
as §1

Each structure is given as a SMILES string. pEC50, pIC50: −log10 of the molar value. Numbered stars: 1 amine (or outer) side, 2 acyl side, 3 side chain; on linkers, the order of the positions; unused ones are H or OH. Square brackets hold non-standard residues; d marks the D form. Peptide text beside a SMILES is read from it. * marks the point of attachment. Dolaproine = CO[C@@H]([C@@H]1CCCN1)[C@@H](C)C(=O)O; X1 = N[C@@H](CSC1CC(=O)N(CCCCCC(=O)*)C1=O)C(=O)O; Dil = CC[C@H](C)[C@H](NC)[C@@H](CC(=O)O)OC; PABC = O=C(OCc1ccc(N[*:1])cc1)[*:2]; X2 = C[C@@H](N*)[C@@H](O)c1ccccc1; NMeV = CN[C@H](C(=O)O)C(C)C

What is called pIC50 is the negative decadic logarithm of the IC50, by convention in mol/L. The term pEC50 denotes the EC50 on a negative log10 scale, so that one unit is a factor of ten. A lower pEC50 goes with a large EC50. As to `CCC(C)C(C(CC(=O)N1CCCC1C(OC)C(C)C(=O)NC(C)C(O)c1ccccc1)OC)N(C)C(=O)C(NC(=O)C(NC)C(C)C)C(C)C` (centres unmarked) [MMAE, Monomethyl auristatin E], the pIC50 in the assay on cells (cellular level) is 9.00 to 11.00; in the assay with BT-474 cells it was 9.49; with NCI-N87 cells, 10.15; in the assay with HCC1954 cells, 10.15; in the assay with MDA-MB-468 cells, 9.77; in the assay with MCF-7 cells, 9.54. For the same compound, the “Max. Inhibition” value in the assay with BT-474 cells was determined as 79.09%; in the assay with NCI-N87 cells, 89.37%; in the assay with HCC1954 cells, 97.54%; with MCF-7 cells, 93.14%. Further, in the assay with tubulin, the pEC50 is 5.85.
`CC[C@H](C)[C@@H]([C@@H](CC(=O)N1CCC[C@H]1[C@H](OC)[C@@H](C)C(=O)N[C@H](C)[C@@H](O)c1ccccc1)OC)N(C)C(=O)[C@@H](NC(=O)[C@H](C(C)C)N(C)C(=O)OCc1ccc(NC(=O)CCCCCN2C(=O)CC(SC[C@H](N)C(=O)O)C2=O)cc1)C(C)C` (some centres unmarked) [Cys-15] ({X1-PABC}-[NMeV]V[Dil][Dolaproine]-X2): the “Decrease in activity compared to MMAE in each cell line” value in assay [1] is listed as 22–177 fold. The “Max. Inhibition” value in the assay with BT-474 cells is on record as 82.62%; in the assay with NCI-N87 cells, 94.86%; with HCC1954 cells it was 98.86%; in the assay with MDA-MB-468 cells it was 85.75%; in the assay with MCF-7 cells, 91.13%. Besides, the negative logarithm of the IC50 (pIC50) in the assay on BT-474 cells was 8.16; in the assay on NCI-N87 cells, 8.06; with HCC1954 cells it was 8.64; with MDA-MB-468 cells, 7.95; with MCF-7 cells it was 7.29. In the assay on tubulin, the pEC50 was 5.63.
